{"source": "the supplement of paper PMC11208160", "data": [{"assay": "recombinant barcode read abundance after kanamycin selection (control-corrected) (log10(CPM+1)); higher = more efficient recombination; sequences stand for … in AGTGCAGAGAAAATCGGCCAGTTTTCTCTGCCTGCAGTCCGCATGCCGT…AGATTTATGCAGCGGACTGCCTTTCTCCCAAAGTGATAAACCGGACAGTATCATGGACCGGTTTTCCCGGTAATCCGTATTTGCAAGGTTGGTTTCACT; site = the 11-nt target", "in_short": "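Each value is log10(CPM+1). It describes recombination efficiency, taken as averaged, control-corrected counts per million of barcodes at recombinant junctions. The pooled E. coli library paired targets with IS621 bridge RNA target-binding loops, was co-electroporated with a donor plasmid, and was plated twice on chloramphenicol/ampicillin LB agar (control) and twice on chloramphenicol/ampicillin/kanamycin containing 0.1 mM IPTG.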", "values": [{"sequence": "CTTCGTCCTTGGGTTCTAACCTGTTGCGT (site CTTCGTCCTAG)", "recombinant barcode read abundance (log10)": 0.126}, {"sequence": "CTTCGTCCTTGGGTTCTAACCTGTTGCGT (site CTTCGTCCTAT)", "recombinant barcode read abundance (log10)": 0.797}, {"sequence": "CTTGCGACTTGGGTTCTAACCTGTTGCTT (site CTTGCGACTAA)", "recombinant barcode read abundance (log10)": 0.391}, {"sequence": "CTTGCGACTTGGGTTCTAACCTGTTGCTT (site TGCATAGCTTG)", "recombinant barcode read abundance (log10)": 0.0884}, {"sequence": "CTTGCTCCTTGGGTTCTAACCTGTTGCAT (site AGACGGACTTG)", "recombinant barcode read abundance (log10)": 0.0627}, {"sequence": "CTTGCTCCTTGGGTTCTAACCTGTTGCAT (site CTTGCTCCTAT)", "recombinant barcode read abundance (log10)": 0.227}, {"sequence": "CTTTAGTCTTGGGTTCTAACCTGTTGCTA (site AAAGGTCCTCT)", "recombinant barcode read abundance (log10)": 0.0491}, {"sequence": "CTTTAGTCTTGGGTTCTAACCTGTTGCTA (site CTTTAGTCTTA)", "recombinant barcode read abundance (log10)": 0.174}, {"sequence": "CTTTCACCTTGGGTTCTAACCTGTTGCCT (site CTTTCACCTAG)", "recombinant barcode read abundance (log10)": 0.547}, {"sequence": "CTTTCACCTTGGGTTCTAACCTGTTGCCT (site CTTTCGTCTAG)", "recombinant barcode read abundance (log10)": 0.0614}, {"sequence": "CTTTCGCCTTGGGTTCTAACCTGTTGCCT (site CTATCGCCTAG)", "recombinant barcode read abundance (log10)": 0.0688}, {"sequence": "CTTTCGCCTTGGGTTCTAACCTGTTGCCT (site CTCTCGCCTAG)", "recombinant barcode read abundance (log10)": 0.102}, {"sequence": "CTTTCGCCTTGGGTTCTAACCTGTTGCCT (site CTGTCGCCTAG)", "recombinant barcode read abundance (log10)": 0.0968}, {"sequence": "CTTTCGCCTTGGGTTCTAACCTGTTGCCT (site CTTTCGCCTAG)", "recombinant barcode read abundance (log10)": 0.0534}, {"sequence": "CTTTGCCCTTGGGTTCTAACCTGTTGCCT (site CATTGCCCTAG)", "recombinant barcode read abundance (log10)": 0.179}, {"sequence": "CTTTGCCCTTGGGTTCTAACCTGTTGCCT (site CCTTGCCCTAG)", "recombinant barcode read abundance (log10)": 0.0734}, {"sequence": "CTTTGCCCTTGGGTTCTAACCTGTTGCCT (site CGTTGCCCTAG)", "recombinant barcode read abundance (log10)": 0.0892}, {"sequence": "CTTTGCCCTTGGGTTCTAACCTGTTGCCT (site CTTTGCCCTAG)", "recombinant barcode read abundance (log10)": 0.687}, {"sequence": "GAAAGGGCTTGGGTTCTAACCTGTTGCCT (site GAAAAGGCTAG)", "recombinant barcode read abundance (log10)": 0.183}, {"sequence": "GAAAGGGCTTGGGTTCTAACCTGTTGCCT (site GAAACGGCTAG)", "recombinant barcode read abundance (log10)": 0.0842}, {"sequence": "GAAAGGGCTTGGGTTCTAACCTGTTGCCT (site GAAAGGGCTAG)", "recombinant barcode read abundance (log10)": 0.566}, {"sequence": "GAAAGGGCTTGGGTTCTAACCTGTTGCCT (site GAAATGGCTAG)", "recombinant barcode read abundance (log10)": 0.0705}, {"sequence": "GAAATTCCTTGGGTTCTAACCTGTTGCCT (site GAAAATCCTAG)", "recombinant barcode read abundance (log10)": 0.148}, {"sequence": "GAAATTCCTTGGGTTCTAACCTGTTGCCT (site GAAACTCCTAG)", "recombinant barcode read abundance (log10)": 0.266}, {"sequence": "GAAATTCCTTGGGTTCTAACCTGTTGCCT (site GAAAGTCCTAG)", "recombinant barcode read abundance (log10)": 0.132}, {"sequence": "GAAATTCCTTGGGTTCTAACCTGTTGCCT (site GAAATTCCTAG)", "recombinant barcode read abundance (log10)": 0.371}, {"sequence": "GAACCTTCTTGGGTTCTAACCTGTTGCCT (site GAACCTTCTAG)", "recombinant barcode read abundance (log10)": 0.695}, {"sequence": "GAACCTTCTTGGGTTCTAACCTGTTGCCT (site GAACGATCTAG)", "recombinant barcode read abundance (log10)": 0.0234}, {"sequence": "GAACGACCTTGGGTTCTAACCTGTTGCTT (site GAACGACCTAA)", "recombinant barcode read abundance (log10)": 0.613}, {"sequence": "GAACGACCTTGGGTTCTAACCTGTTGCTT (site GAACGACCTCA)", "recombinant barcode read abundance (log10)": 0.0114}, {"sequence": "GAACGCTCTTGGGTTCTAACCTGTTGCTT (site GAACGCTCTAA)", "recombinant barcode read abundance (log10)": 0.876}, {"sequence": "GAACGCTCTTGGGTTCTAACCTGTTGCTT (site TGTAAGACTCT)", "recombinant barcode read abundance (log10)": 0.225}, {"sequence": "GAACGGGCTTGGGTTCTAACCTGTTGCGG (site GAACGGGCTCC)", "recombinant barcode read abundance (log10)": 1.33}, {"sequence": "GAACGGGCTTGGGTTCTAACCTGTTGCGG (site GGACGGGCTCT)", "recombinant barcode read abundance (log10)": 0.12}, {"sequence": "GAAGCTCCTTGGGTTCTAACCTGTTGCGT (site GAAGCTCCTAC)", "recombinant barcode read abundance (log10)": 2.81}, {"sequence": "GAAGCTCCTTGGGTTCTAACCTGTTGCGT (site GAGGCTCCTAC)", "recombinant barcode read abundance (log10)": 0.581}, {"sequence": "GAAGTAACTTGGGTTCTAACCTGTTGCCT (site GAAGTAACTAG)", "recombinant barcode read abundance (log10)": 1.18}, {"sequence": "GAAGTAACTTGGGTTCTAACCTGTTGCCT (site GACGTAACTAG)", "recombinant barcode read abundance (log10)": 0.194}, {"sequence": "GAAGTAACTTGGGTTCTAACCTGTTGCCT (site GAGGTAACTAG)", "recombinant barcode read abundance (log10)": 0.346}, {"sequence": "GAAGTAACTTGGGTTCTAACCTGTTGCCT (site GATGTAACTAG)", "recombinant barcode read abundance (log10)": 0.0965}, {"sequence": "GAATATTCTTGGGTTCTAACCTGTTGCTT (site GAATATTCTAA)", "recombinant barcode read abundance (log10)": 0.206}, {"sequence": "GAATATTCTTGGGTTCTAACCTGTTGCTT (site GAATGTTCTAA)", "recombinant barcode read abundance (log10)": 0.0342}, {"sequence": "GAATCTACTTGGGTTCTAACCTGTTGCCT (site GAATCTACTAG)", "recombinant barcode read abundance (log10)": 0.512}, {"sequence": "GAATCTACTTGGGTTCTAACCTGTTGCCT (site GCATCTACTAG)", "recombinant barcode read abundance (log10)": 0.195}, {"sequence": "GAATCTACTTGGGTTCTAACCTGTTGCCT (site GGATCTACTAG)", "recombinant barcode read abundance (log10)": 0.896}, {"sequence": "GAATCTACTTGGGTTCTAACCTGTTGCCT (site GTATCTACTAG)", "recombinant barcode read abundance (log10)": 0.136}, {"sequence": "GAATCTACTTGGGTTCTAACCTGTTGCTT (site GAATCTACTAA)", "recombinant barcode read abundance (log10)": 0.095}, {"sequence": "GAATCTACTTGGGTTCTAACCTGTTGCTT (site GACTCTACTAA)", "recombinant barcode read abundance (log10)": 0.0804}, {"sequence": "GAATCTACTTGGGTTCTAACCTGTTGCTT (site GAGTCTACTAA)", "recombinant barcode read abundance (log10)": 0.122}, {"sequence": "GAATCTACTTGGGTTCTAACCTGTTGCTT (site GATTCTACTAA)", "recombinant barcode read abundance (log10)": 0.00713}, {"sequence": "GAATGGACTTGGGTTCTAACCTGTTGCGA (site CTCATATCTAA)", "recombinant barcode read abundance (log10)": 0.0913}, {"sequence": "GAATGGACTTGGGTTCTAACCTGTTGCGA (site GAATGGACTTC)", "recombinant barcode read abundance (log10)": 2.45}, {"sequence": "GACAAACCTTGGGTTCTAACCTGTTGCCT (site GACAAACCTAG)", "recombinant barcode read abundance (log10)": 0.433}, {"sequence": "GACAAACCTTGGGTTCTAACCTGTTGCCT (site GTCAAACCTAA)", "recombinant barcode read abundance (log10)": 0.00743}, {"sequence": "GACACAGCTTGGGTTCTAACCTGTTGCCT (site GAAACAGCTAG)", "recombinant barcode read abundance (log10)": 0.145}, {"sequence": "GACACAGCTTGGGTTCTAACCTGTTGCCT (site GACACAGCTAG)", "recombinant barcode read abundance (log10)": 1.26}, {"sequence": "GACACAGCTTGGGTTCTAACCTGTTGCCT (site GAGACAGCTAG)", "recombinant barcode read abundance (log10)": 0.118}, {"sequence": "GACACAGCTTGGGTTCTAACCTGTTGCCT (site GATACAGCTAG)", "recombinant barcode read abundance (log10)": 0.372}, {"sequence": "GACACTTCTTGGGTTCTAACCTGTTGCCT (site GACACTTCTAG)", "recombinant barcode read abundance (log10)": 0.133}, {"sequence": "GACACTTCTTGGGTTCTAACCTGTTGCCT (site GTCAATTCTAG)", "recombinant barcode read abundance (log10)": 0.0949}, {"sequence": "GACATATCTTGGGTTCTAACCTGTTGCTG (site GACATATCTCA)", "recombinant barcode read abundance (log10)": 0.403}, {"sequence": "GACATATCTTGGGTTCTAACCTGTTGCTG (site GACATATCTTG)", "recombinant barcode read abundance (log10)": 0.165}, {"sequence": "GACCAGCCTTGGGTTCTAACCTGTTGCCT (site GACCAGCCTAA)", "recombinant barcode read abundance (log10)": 0.277}, {"sequence": "GACCAGCCTTGGGTTCTAACCTGTTGCCT (site GACCAGCCTAC)", "recombinant barcode read abundance (log10)": 0.0691}, {"sequence": "GACCAGCCTTGGGTTCTAACCTGTTGCCT (site GACCAGCCTAG)", "recombinant barcode read abundance (log10)": 0.98}, {"sequence": "GACCAGCCTTGGGTTCTAACCTGTTGCCT (site GACCAGCCTAT)", "recombinant barcode read abundance (log10)": 0.359}, {"sequence": "GACCAGTCTTGGGTTCTAACCTGTTGCGG (site GACCAGTCTCC)", "recombinant barcode read abundance (log10)": 1.97}, {"sequence": "GACCAGTCTTGGGTTCTAACCTGTTGCGG (site GTCCAGGCTCC)", "recombinant barcode read abundance (log10)": 0.128}, {"sequence": "GACCGCTCTTGGGTTCTAACCTGTTGCTA (site GACCGCTCTTA)", "recombinant barcode read abundance (log10)": 1.2}, {"sequence": "GACCGCTCTTGGGTTCTAACCTGTTGCTA (site GTCAGCTCTTA)", "recombinant barcode read abundance (log10)": 0.37}, {"sequence": "GACCGTCCTTGGGTTCTAACCTGTTGCCA (site GACCGTCCTTG)", "recombinant barcode read abundance (log10)": 0.761}, {"sequence": "GACCGTCCTTGGGTTCTAACCTGTTGCCA (site GACTGTCCTTC)", "recombinant barcode read abundance (log10)": 0.472}, {"sequence": "GACCGTCCTTGGGTTCTAACCTGTTGCTT (site GACCGTCCTAA)", "recombinant barcode read abundance (log10)": 1.1}, {"sequence": "GACCGTCCTTGGGTTCTAACCTGTTGCTT (site GACCGTCCTAC)", "recombinant barcode read abundance (log10)": 0.447}, {"sequence": "GACCGTCCTTGGGTTCTAACCTGTTGCTT (site GACCGTCCTAG)", "recombinant barcode read abundance (log10)": 0.252}, {"sequence": "GACCGTCCTTGGGTTCTAACCTGTTGCTT (site GACCGTCCTAT)", "recombinant barcode read abundance (log10)": 1.19}, {"sequence": "GACCGTGCTTGGGTTCTAACCTGTTGCCT (site GACCGAGCTAG)", "recombinant barcode read abundance (log10)": 0.0758}]}]}
